Measurements: patent US8299074B2, “P38 MAP kinase inhibitors” (RespiVert Ltd., priority 2008, dated 2012)
Read-outs that look alike come from different tables or passages of the source.

What was measured:
[1] = test system: THP-1 cells; assay: LPS-induced TNF alpha release in THP-1 cells; format: cell-based; conditions: Homo sapiens
Experimental: LPS-Induced TNF Alpha Release in THP-1 Cells: Potency […] Coli; O111:B4, Sigma) for 4 hr and the supernatant collected for determination of TNFα concentration by sandwich ELISA (Duo-set, R&D systems). The inhibition of TNFα production was calculated at each concentration by comparison with vehicle control.

[2] = test system: BEAS2B cells; assay: Poly I:C-induced ICAM-1 induction in BEAS2B cells; format: cell-based; conditions: Homo sapiens, BEAS-2B, read-out: BEAS2B (polyIC) ICAM1 IC50
Experimental: Poly I:C-Induced ICAM-1 Induction in BEAS2B Cells: Potency Poly I:C (1 ug/ml) (Invivogen Ltd., San Diego, Calif.) was transfected into BEAS2B cells (human bronchial epithelial cells, ATCC) with Oligofectamine (Invitrogen, Carlsbad, Calif.). Cells were pre-incubated with final concentrations of compound for 2 hrs. The level of ICAM1 expression on the cell surface was determined by cell-based ELISA. Briefly, at 18 hrs after poly I:C transfection, cells were fixed with 4% formaldehyde in PBS. After quenching endogenous peroxidase by adding 0.1% sodium azide and 1% hydrogen peroxide, cells were washed with wash-buffer (0.1% Tween in PBS: PBS-Tween). After blocking the wells with 5% milk in PBS-Tween for 1 hr, the cells were incubated with anti-human ICAM-1 antibody (Cell Signaling Technology, Danvers, Mass.) in 1% BSA PBS overnight at 4° C. Cells were washed with PBS-Tween and incubated with the secondary antibody (HRP-conjugated anti-rabbit IgG, Dako Ltd., Glostrup, Denmark). The ICAM-1 signal was detected by adding substrate and reading at 450 nm with a reference wavelength of 655 nm using a spectrophotometer. […] The measured OD 450-655 readings were corrected for cell number by dividing with the OD595 reading in each well.

[3] = test system: Differentiated U937 cells; assay: MTT assay (cell viability); format: cell-based, human
Experimental: MTT Assay Differentiated U937 cells were pre-incubated with compound for 4 hrs in 5% FCS or 10% FCS for 24 hrs. […] After 1 hr incubation, the media were removed, 200 ul of DMSO added to each well and the plates were shaken lightly for 1 h prior to reading the absorbance at 550 nm. The percentage loss of cell viability was calculated for each well relative to vehicle (0.5% DMSO)-treatment. Consequently an apparent increase in cell viability for drug treatment relative to vehicle is tabulated as a negative percentage.

[4] = test system: U937 cells; assay: LPS-induced IL-8 release in U937 cells; format: cell-based; conditions: Homo sapiens, read-out: DU937 (LPS) IL-8 IC50
Experimental: (§1) LPS-Induced TNF Alpha/IL-8 Release in U937 Cells: Potency U937 cells, human monocytic cell line, were differentiated to macrophage-type cells by incubation with phorbol myristate acetate (PMA; 100 ng/ml) for 48 to 72 hours. Cells were pre-incubated with final concentrations of compound for 2 hrs. […] Coli: O111:B4, Sigma) for 4 hrs, and the supernatant collected for determination of TNFα and IL-8 concentration by sandwich ELISA (Duo-set, R&D systems). […] The inhibition of IL-8 production was calculated at each concentration of test compound by comparison with vehicle control.

[5] = test system: U937 cells; assay: LPS-induced TNF alpha release in U937 cells; format: cell-based
Experimental: as §1

[6] = THP-1, read-out: THP-1 (LPS) TNFα IC50
[7] = Table 2, loss of cell viability, test conducted at 10 μg/ml
[8] = Homo sapiens, read-out: DU937 (LPS) TNFα REC50
[9] = THP-1, Table 2, read-out: THP-1 (LPS) TNFα IC50
[10] = Homo sapiens; read-out: DU937 (LPS) TNFα REC50
[11] = Table 2, loss of cell viability at 1 μg/ml

Row | SMILES | IC50 [1, 6] | IC50 [2] | DU937 (cell viability) MTT assay 4 h [3, 7] | DU937 (cell viability) MTT assay 24 h [3, 7] | IC50 [4] | EC50 [5, 8] | IC50 [1, 9] | IC50 ([2]; Table 2) | IC50 ([4]; Table 2) | EC50 [5, 10] | DU937 (cell viability) MTT assay 4 h [3, 11] | DU937 (cell viability) MTT assay 24 h [3, 11] | DU937 (cell viability) MTT assay 4 h ([3]; Table 3, first MTT column, loss of cell viability at 1 μg/ml) | DU937 (cell viability) MTT assay 4 h ([3]; Table 3, second MTT column, loss of cell viability at 1 μg/ml)
1 | COCCOCC(=O)Nc1cc(Oc2ccc(NC(=O)Nc3cc(C(C)(C)C)nn3-c3ccc(C)cc3)c3ccccc23)ccn1 [Example 1, N-(4-(4-(3-(3-tert-Butyl-1-p-tolyl-1H-pyrazol-5-yl)ureido)naphthalen-1-yloxy)pyridin-2-yl)-2-(2-methoxyethoxy)acetamide] | < 10 nM | < 5000 nM | −^$ (<=30%) | +^$ (>30%) | < 5000 nM | < 10 nM | – | – | – | – | – | – | – | –
2 | Cc1ccc(-n2nc(C(C)(C)C)cc2NC(=O)Nc2ccc(Oc3ccnc(NC(=O)C4CCOCC4)c3)c3ccccc23)cc1 [Example 2, N-(4-(4-(3-(3-tert-Butyl-1-p-tolyl-1H-pyrazol-5-yl)ureido)naphthalen-1-yloxy)pyridin-2-yl)tetrahydro-2H-pyran-4-carboxamide] | – | – | −^$ (<=30%) | +^$ (>30%) | – | – | < 10 nM | < 10 nM | < 10 nM | < 5000 nM | – | – | – | –
3 | CSCC(=O)Nc1cc(Oc2ccc(NC(=O)Nc3cc(C(C)(C)C)nn3-c3ccc(C)cc3)c3ccccc23)ccn1 [Example 3, N-(4-(4-(3-(3-tert-Butyl-1-p-tolyl-1H-pyrazol-5-yl)ureido)naphthalen-1-yloxy)pyridin-2-yl)-2-(methylthio)acetamide] | – | – | −^$ (<=30%) | +^$ (>30%) | – | – | < 10 nM | < 5000 nM | < 10 nM | < 5000 nM | – | – | – | –
4 | COCCC(=O)Nc1cc(Oc2ccc(NC(=O)Nc3cc(C(C)(C)C)nn3-c3ccc(C)cc3)c3ccccc23)ccn1 [Example 4, N-(4-(4-(3-(3-tert-Butyl-1-p-tolyl-1H-pyrazol-5-yl)ureido)naphthalen-1-yloxy)pyridin-2-yl)-3-methoxypropanamide] | – | – | −^$ (<=30%) | +^$ (>30%) | – | – | < 10 nM | < 10 nM | < 10 nM | < 10 nM | – | – | – | –
5 | COCC(=O)Nc1cc(Oc2ccc(NC(=O)Nc3cc(C(C)(C)C)nn3-c3ccc(C)cc3)c3ccccc23)ccn1 [Example 8, N-(4-(4-(3-(3-tert-Butyl-1-p-tolyl-1H-pyrazol-5-yl)ureido)naphthalen-1-yloxy)pyridin-2-yl)-2-methoxyacetamide] | – | – | – | – | – | – | < 5000 nM | < 10 nM | < 10 nM | < 10 nM | − (<=30%) | + (>30%) | – | –
6 | [2H]c1c([2H])c(C([2H])([2H])[2H])c([2H])c([2H])c1-n1nc(C(C)(C)C)cc1NC(=O)Nc1ccc(Oc2ccnc(NC(=O)COC)c2)c2ccccc12 [Example 10, N-(4-(4-(3-(3-tert-butyl-1-(2,3,5,6-tetradeutero-4-(trideuteromethyl)phenyl)-1H-pyrazol-5-yl)ureido)naphthalen-1-yloxy)pyridin-2-yl)-2-methoxyacetamide] | – | – | – | – | – | – | < 10 nM | < 10 nM | < 10 nM | < 10 nM | − (<=30%) | + (>30%) | – | –
7 | COCCOCC(=O)N1CCC(NC(=O)Nc2cc(Oc3ccc(NC(=O)Nc4cc(C(C)(C)C)nn4-c4ccc(C)cc4)c4ccccc34)ccn2)CC1 [Example 40, 2-(2-Methoxyethoxy)-1-(4-(3-(4-(4-(3-(3-tert-butyl-1-p-tolyl-1H-pyrazol-5-yl)ureido)naphthalen-1-yloxy)pyridin-2-yl)ureido)piperidin-1-yl)ethanone] | < 10 nM | < 10 nM | – | – | < 10 nM | < 10 nM | – | – | – | – | – | – | − (<=30%) | + (>30%)
